{"source": "patent US10251395B2", "about": "“Substituted furano-/thienocycloalkylamino-2-pyrimidine derivatives and use thereof for controlling undesired plant growth” (Bayer CropScience Aktiengesellschaft, priority 2015, dated 2019)", "key": {"Abutilon theophrasti [1]": {"tested_on": "Abutilon theophrasti", "assay": "Pre-emergence herbicidal effect", "format": "in vivo", "conditions": "Dosage 320 g/ha, scored visually after 3 weeks", "outline": "(§1)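 Visual damage score in % after 3 weeks in the greenhouse, relative to untreated controls (0% like control, 100% plants dead). Compounds were sprayed pre-emergence onto covering soil over seeds sown in sandy loam, as WP or EC in water at 600 to 800 L/ha plus 0.2% wetting agent.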"}, "Alopecurus myosuroides [2]": {"tested_on": "Alopecurus myosuroides", "assay": "Pre-emergence herbicidal effect", "format": "in vivo", "conditions": "scored visually after 3 weeks", "outline": "as §1"}, "Amaranthus retroflexus [3]": {"tested_on": "Amaranthus retroflexus", "assay": "Pre-emergence herbicidal effect", "format": "in vivo", "conditions": "scored visually after 3 weeks", "outline": "as §1"}, "Echinochloa crus-galli [4]": {"tested_on": "Echinochloa crus-galli", "assay": "Pre-emergence herbicidal effect", "format": "in vivo", "conditions": "scored visually after 3 weeks", "outline": "as §1"}, "Ipomoea purpurea [5]": {"tested_on": "Ipomoea purpurea", "assay": "Pre-emergence herbicidal effect", "format": "in vivo", "conditions": "Dosage 320 g/ha, scored visually after 3 weeks", "outline": "as §1"}, "Lolium multiflorum [6]": {"tested_on": "Lolium multiflorum", "assay": "Pre-emergence herbicidal effect", "format": "in vivo", "conditions": "scored visually after 3 weeks", "outline": "as §1"}, "Matricaria inodora": {"tested_on": "Matricaria inodora", "assay": "Pre-emergence herbicidal effect", "format": "in vivo", "conditions": "scored visually after 3 weeks", "outline": "as §1"}, "Polygonum convolvulus [7]": {"tested_on": "Polygonum convolvulus", "assay": "Pre-emergence herbicidal effect", "format": "in vivo", "conditions": "scored visually after 3 weeks", "outline": "as §1"}, "Setaria viridis [8]": {"tested_on": "Setaria viridis", "assay": "Pre-emergence herbicidal effect", "format": "in vivo", "conditions": "scored visually after 3 weeks", "outline": "as §1"}, "Stellaria media [9]": {"tested_on": "Stellaria media", "assay": "Pre-emergence herbicidal effect", "format": "in vivo", "conditions": "scored visually after 3 weeks", "outline": "as §1"}, "Veronica persica [10]": {"tested_on": "Veronica persica", "assay": "Pre-emergence herbicidal effect", "format": "in vivo", "conditions": "scored visually after 3 weeks", "outline": "as §1"}, "Viola tricolor [11]": {"tested_on": "Viola tricolor", "assay": "Pre-emergence herbicidal effect", "format": "in vivo", "conditions": "scored visually after 3 weeks", "outline": "as §1"}, "Abutilon theophrasti [12]": {"tested_on": "Abutilon theophrasti", "assay": "Post-emergence herbicidal effect", "format": "in vivo", "conditions": "320 g/ha, assessed visually after about 3 weeks vs untreated controls", "outline": "(§2)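 Greenhouse weeds grown in sandy loam were sprayed at the one-leaf stage, 2–3 weeks after sowing, with WP or EC formulations in 600–800 L/ha water plus 0.2% wetting agent. Damage was scored visually after about 3 weeks as percent activity relative to untreated controls, where 100% means the plants died.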"}, "Alopecurus myosuroides [13]": {"tested_on": "Alopecurus myosuroides", "assay": "Post-emergence herbicidal effect", "format": "in vivo", "conditions": "assessed visually after about 3 weeks vs untreated controls", "outline": "as §2"}, "Amaranthus retroflexus [14]": {"tested_on": "Amaranthus retroflexus", "assay": "Post-emergence herbicidal effect", "format": "in vivo", "conditions": "assessed visually after about 3 weeks vs untreated controls", "outline": "as §2"}, "Avena fatua": {"tested_on": "Avena fatua", "assay": "Post-emergence herbicidal effect", "format": "in vivo", "conditions": "320 g/ha, assessed visually after about 3 weeks vs untreated controls", "outline": "as §2"}, "Echinochloa crus-galli [15]": {"tested_on": "Echinochloa crus-galli", "assay": "Post-emergence herbicidal effect", "format": "in vivo", "conditions": "assessed visually after about 3 weeks vs untreated controls", "outline": "as §2"}, "Ipomoea purpurea [16]": {"tested_on": "Ipomoea purpurea", "assay": "Post-emergence herbicidal effect", "format": "in vivo", "conditions": "320 g/ha, assessed visually after about 3 weeks vs untreated controls", "outline": "as §2"}, "Lolium multiflorum [17]": {"tested_on": "Lolium multiflorum", "assay": "Post-emergence herbicidal effect", "format": "in vivo", "conditions": "assessed visually after about 3 weeks vs untreated controls", "outline": "as §2"}, "Polygonum convolvulus [18]": {"tested_on": "Polygonum convolvulus", "assay": "Post-emergence herbicidal effect", "format": "in vivo", "conditions": "assessed visually after about 3 weeks vs untreated controls", "outline": "as §2"}, "Setaria viridis [19]": {"tested_on": "Setaria viridis", "assay": "Post-emergence herbicidal effect", "format": "in vivo", "conditions": "assessed visually after about 3 weeks vs untreated controls", "outline": "as §2"}, "Stellaria media [20]": {"tested_on": "Stellaria media", "assay": "Post-emergence herbicidal effect", "format": "in vivo", "conditions": "assessed visually after about 3 weeks vs untreated controls", "outline": "as §2"}, "Veronica persica [21]": {"tested_on": "Veronica persica", "assay": "Post-emergence herbicidal effect", "format": "in vivo", "conditions": "assessed visually after about 3 weeks vs untreated controls", "outline": "as §2"}, "Viola tricolor [22]": {"tested_on": "Viola tricolor", "assay": "Post-emergence herbicidal effect", "format": "in vivo", "conditions": "assessed visually after about 3 weeks vs untreated controls", "outline": "as §2"}, "logP (HCOOH)": {"assay": "logP (HCOOH)", "format": "physicochemical", "conditions": "HCOOH", "excerpt": "Table 2 (physicochemical characterization of selected synthesis examples)"}}}
{"smiles": "Nc1nc(N[C@@H]2CCCc3sccc32)ncc1C(F)(F)F", "note": "[compound 46]", "values": [{"measurement": "ABUTH pre-emergence efficacy (herbicidal activity)", "setting": "Abutilon theophrasti [1]", "value": 80, "unit": "%"}, {"measurement": "ALOMY pre-emergence efficacy (herbicidal activity)", "setting": "Alopecurus myosuroides [2]; Dosage 80 g/ha", "value": 100, "unit": "%"}, {"measurement": "ALOMY pre-emergence efficacy (herbicidal activity)", "setting": "Alopecurus myosuroides [2]; Dosage 320 g/ha", "value": 100, "unit": "%"}, {"measurement": "AMARE pre-emergence efficacy (herbicidal activity)", "setting": "Amaranthus retroflexus [3]; Dosage 80 g/ha", "value": 100, "unit": "%"}, {"measurement": "AMARE pre-emergence efficacy (herbicidal activity)", "setting": "Amaranthus retroflexus [3]; Dosage 320 g/ha", "value": 100, "unit": "%"}, {"measurement": "ECHCG pre-emergence efficacy (herbicidal activity)", "setting": "Echinochloa crus-galli [4]; Dosage 80 g/ha", "value": 100, "unit": "%"}, {"measurement": "ECHCG pre-emergence efficacy (herbicidal activity)", "setting": "Echinochloa crus-galli [4]; Dosage 320 g/ha", "value": 100, "unit": "%"}, {"measurement": "PHBPU pre-emergence efficacy (herbicidal activity)", "setting": "Ipomoea purpurea [5]", "value": 100, "unit": "%"}, {"measurement": "LOLMU pre-emergence efficacy (herbicidal activity)", "setting": "Lolium multiflorum [6]; Dosage 80 g/ha", "value": 80, "unit": "%"}, {"measurement": "LOLMU pre-emergence efficacy (herbicidal activity)", "setting": "Lolium multiflorum [6]; Dosage 320 g/ha", "value": 100, "unit": "%"}, {"measurement": "MATIN pre-emergence efficacy (herbicidal activity)", "setting": "Matricaria inodora; Dosage 80 g/ha", "value": 100, "unit": "%"}, {"measurement": "MATIN pre-emergence efficacy (herbicidal activity)", "setting": "Matricaria inodora; Dosage 320 g/ha", "value": 100, "unit": "%"}, {"measurement": "POLCO pre-emergence efficacy (herbicidal activity)", "setting": "Polygonum convolvulus [7]; Dosage 80 g/ha", "value": 90, "unit": "%"}, {"measurement": "POLCO pre-emergence efficacy (herbicidal activity)", "setting": "Polygonum convolvulus [7]; Dosage 320 g/ha", "value": 100, "unit": "%"}, {"measurement": "SETVI pre-emergence efficacy (herbicidal activity)", "setting": "Setaria viridis [8]; Dosage 80 g/ha", "value": 100, "unit": "%"}, {"measurement": "SETVI pre-emergence efficacy (herbicidal activity)", "setting": "Setaria viridis [8]; Dosage 320 g/ha", "value": 100, "unit": "%"}, {"measurement": "STEME pre-emergence efficacy (herbicidal activity)", "setting": "Stellaria media [9]; Dosage 80 g/ha", "value": 100, "unit": "%"}, {"measurement": "STEME pre-emergence efficacy (herbicidal activity)", "setting": "Stellaria media [9]; Dosage 320 g/ha", "value": 100, "unit": "%"}, {"measurement": "VERPE pre-emergence efficacy (herbicidal activity)", "setting": "Veronica persica [10]; Dosage 80 g/ha", "value": 100, "unit": "%"}, {"measurement": "VERPE pre-emergence efficacy (herbicidal activity)", "setting": "Veronica persica [10]; Dosage 320 g/ha", "value": 100, "unit": "%"}, {"measurement": "VIOTR pre-emergence efficacy (herbicidal activity)", "setting": "Viola tricolor [11]; Dosage 80 g/ha", "value": 100, "unit": "%"}, {"measurement": "VIOTR pre-emergence efficacy (herbicidal activity)", "setting": "Viola tricolor [11]; Dosage 320 g/ha", "value": 100, "unit": "%"}, {"measurement": "post-emergence efficacy ABUTH", "setting": "Abutilon theophrasti [12]", "value": 40, "unit": "%"}, {"measurement": "post-emergence efficacy ALOMY", "setting": "Alopecurus myosuroides [13]; 80 g/ha", "value": 90, "unit": "%"}, {"measurement": "post-emergence efficacy ALOMY", "setting": "Alopecurus myosuroides [13]; 320 g/ha", "value": 100, "unit": "%"}, {"measurement": "post-emergence efficacy AMARE", "setting": "Amaranthus retroflexus [14]; 80 g/ha", "value": 100, "unit": "%"}, {"measurement": "post-emergence efficacy AMARE", "setting": "Amaranthus retroflexus [14]; 320 g/ha", "value": 100, "unit": "%"}, {"measurement": "post-emergence efficacy AVEFA", "setting": "Avena fatua", "value": 80, "unit": "%"}, {"measurement": "post-emergence efficacy ECHCG", "setting": "Echinochloa crus-galli [15]; 80 g/ha", "value": 100, "unit": "%"}, {"measurement": "post-emergence efficacy ECHCG", "setting": "Echinochloa crus-galli [15]; 320 g/ha", "value": 100, "unit": "%"}, {"measurement": "post-emergence efficacy PHBPU", "setting": "Ipomoea purpurea [16]", "value": 80, "unit": "%"}, {"measurement": "post-emergence efficacy LOLMU", "setting": "Lolium multiflorum [17]; 80 g/ha", "value": 80, "unit": "%"}, {"measurement": "post-emergence efficacy LOLMU", "setting": "Lolium multiflorum [17]; 320 g/ha", "value": 100, "unit": "%"}, {"measurement": "post-emergence efficacy POLCO", "setting": "Polygonum convolvulus [18]; 80 g/ha", "value": 90, "unit": "%"}, {"measurement": "post-emergence efficacy POLCO", "setting": "Polygonum convolvulus [18]; 320 g/ha", "value": 90, "unit": "%"}, {"measurement": "post-emergence efficacy SETVI", "setting": "Setaria viridis [19]; 80 g/ha", "value": 90, "unit": "%"}, {"measurement": "post-emergence efficacy SETVI", "setting": "Setaria viridis [19]; 320 g/ha", "value": 90, "unit": "%"}, {"measurement": "post-emergence efficacy STEME", "setting": "Stellaria media [20]; 80 g/ha", "value": 100, "unit": "%"}, {"measurement": "post-emergence efficacy STEME", "setting": "Stellaria media [20]; 320 g/ha", "value": 100, "unit": "%"}, {"measurement": "post-emergence efficacy VERPE", "setting": "Veronica persica [21]; 80 g/ha", "value": 80, "unit": "%"}, {"measurement": "post-emergence efficacy VERPE", "setting": "Veronica persica [21]; 320 g/ha", "value": 100, "unit": "%"}, {"measurement": "post-emergence efficacy VIOTR", "setting": "Viola tricolor [22]; 80 g/ha", "value": 80, "unit": "%"}, {"measurement": "post-emergence efficacy VIOTR", "setting": "Viola tricolor [22]; 320 g/ha", "value": 100, "unit": "%"}, {"measurement": "logP (HCOOH)", "setting": "logP (HCOOH)", "value": "oily; logP (HCOOH): 1.91; 1H NMR (CDCl3, 400 MHZ, δ in ppm): 1.80-1.95 (m,"}]}
